Data on 3 molecules can be found in US20240342168A1, “SMALL MOLECULE INHIBITORS FOR ANTI-CANCER COMBINATION THERAPY” (UNIVERSITY OF CAPE TOWN, priority 2021, published 2024).

In experiment [1] the test system is p53, p21 and Mcl-1 in SiHa cells. Description: Western blot of p53 and p53 targets. It is filed as cell-based. The method, then: (§1) For protein extraction, cells were washed with PBS and lysed using RIPA buffer (50 mM Tris-CI, pH 7.4, 150 mM NaCl, 1% (w/v) sodium deoxycholate, 0.1% (v/v) SDS, 1% (v/v) Triton X-100, 2 mM EGTA, 2 mM EDTA, 50 mM NaF, 5 mM Na2P2O7, 1× complete protease inhibitor cocktail (Roche) and 0.1 M Sodium Orthovanadate). For PARP cleavage analysis, dead cells were collected by centrifugation and combined with live cell lysates. Lysates were sonicated, centrifuged, and the supernatant quantified using the BCA Protein Assay Kit (Pierce, Thermo Scientific) according to the manufacturer's instructions. Proteins were subjected to Western blot analysis using the following antibodies: rabbit anti-Kpnβ1 (H-300, sc-11,367, Santa Cruz), rabbit anti-β-tubulin (H-235, sc-9104, Santa Cruz), rabbit anti-PARP1/2 antibody (H-250, sc-7150, Santa Cruz), mouse anti-GAPDH (0411, sc-47,724, Santa Cruz), rabbit anti-p21 (H-164, sc-756, Santa Cruz), rabbit anti-Mcl-1 (H-260, sc-20,679, Santa Cruz), mouse anti-cyclin D1 (HD11, sc-246, Santa Cruz), rabbit anti-c-Myc (N-262, sc-764, Santa Cruz), mouse anti-p53 (DO-7, M7001, DakoCytomation), mouse anti-XIAP (610,763, BD Biosciences), and rabbit anti-phospho-Histone H2AX (γH2AX, Ser139, 20E3, #9718, Cell Signal).
In general terms: Immunoblotting shows a protein as a band on a membrane.

The subject of experiment [2] is p53 reporter activity in SiHa cells. Description: p53-luciferase reporter assay. Format: cell-based. To be noted: single cisplatin treatment. The method, then:
(§2) SiHa cells were transfected with 100 ng p65-luciferase reporter construct (containing five copies of the p65-binding site, Promega) or 200 ng p53-luciferase reporter construct (containing thirteen wildtype p53 binding sites, Addgene plasmid #16442, Addgene Plasmid Repository (el-Deiry W S, Tokino T, Velculescu V E, Levy D B, Parsons R, Trent J M, et al. WAF1, a potential mediator of p53 tumor suppression. Cell. 1993; 75(4):817-25) and 10 ng pRL-TK (encoding Renilla luciferase, Promega), using Genecellin transfection reagent (Celtic Molecular Diagnostics). The following day cells were treated with 5 μM INI-43 for 2 h, followed by 30 μM cisplatin for 24 h, and luciferase activity assayed using the Dual-Luciferase Report assay system (Promega), according to the manufacturer's instructions. Luciferase readings were measured using the Veritas™ microplate luminometer (Promega) and normalised to Renilla luciferase from the same extract.
(A reporter such as luciferase makes a cellular process visible.)

The next experiment deals with C33A. The experiment in a line: MTT cell viability / cisplatin IC50 determination. It is filed as cell-based. Conditions: 48-h treatment, no INI-43 pre-treatment. The protocol:
(§3) HeLa, SiHa, CaSki and C33A cell lines were purchased from the American Type Culture Collection (ATCC) and maintained in Dulbecco's Modified Eagle's Medium (DMEM, Gibco, Life Technologies) containing 10% Fetal Bovine Serum (Gibco, Life Technologies), supplemented with 100 U/mL penicillin and 100 μg/mL streptomycin. Cells were cultured at 37° C. in a humidified chamber with 5% CO2. All cell lines were authenticated by DNA profiling using the Cell ID System (Promega, Madison, WI, USA).
(§4) Cells were plated in 96-well plates and subjected to single or CT (2 h INI-43 pre-treatment followed by cisplatin treatment, without removing IN1-43 from the media) for 48 h. Following treatment, MTT (Sigma) was added and 4 h later crystals solubilized using 10% SLS in 0.01 M HCl. Absorbencies were measured at 595 nm and IC50 values determined via plotting [Fa/(1-Fa)] in log scale against log cisplatin concentration, where:
(§5) The half inhibitory concentration was calculated using the formula IC50=10^x-intercept

The next experiment deals with CaSki. The experiment in a line: MTT cell viability / cisplatin IC50 determination. It is filed as cell-based. To be noted: 48-h treatment, no INI-43 pre-treatment. The method, then:
as §3, §4, §5

The test system of a further experiment is HeLa. Description: MTT cell viability / cisplatin IC50 determination. Format: cell-based. The method, then:
as §3, §4, §5

For another experiment, the system named is SiHa. Description: MTT cell viability / cisplatin IC50 determination. It is filed as cell-based. The method, then: as §3, §4, §5
The test system of experiment [3] is cyclin D1, c-Myc and XIAP. The experiment in a line: Western blot of NFκB targets. It is filed as cell-based. To be noted: single cisplatin treatment. The protocol:
as §1

Experiment [4] concerns p65 reporter activity in SiHa cells. The experiment in a line: p65-luciferase reporter assay. Format: cell-based. Conditions: 30 μM single cisplatin treatment. The method, then: as §2
Experiment [5] has as its system NFκB-p50 and NFκB-p65 in SiHa cells. Description: Immunofluorescence of NFκB nuclear localization. It is filed as cell-based. The method, then: SiHa cells were plated on glass coverslips and treated for 24 h before fixation with 4% paraformaldehyde. Cells were permeabilised using 0.5% Triton-X-100/PBS and blocked using 1% BSA/PBST with 0.3 M Glycine. Primary antibody incubations were performed in 1% BSA/PBST, followed by secondary antibody incubation (Cy3 conjugated goat anti-rabbit, Jackson ImmunoResearch). Cell nuclei were counterstained with 0.5 μg/mL DAPI, and images captured using the Zeiss inverted fluorescence microscope under 100× oil immersion.

The test system is the same in experiment [6]. The experiment in a line: Nuclear/cytoplasmic fractionation and Western blot. Format: cell-based. To be noted: cisplatin treatment. The protocol:
For protein extraction, cells were washed with PBS and lysed using RIPA buffer (50 mM Tris-CI, pH 7.4, 150 mM NaCl, 1% (w/v) sodium deoxycholate, 0.1% (v/v) SDS, 1% (v/v) Triton X-100, 2 mM EGTA, 2 mM EDTA, 50 mM NaF, 5 mM Na2P2O7, 1× complete protease inhibitor cocktail (Roche) and 0.1 M Sodium Orthovanadate). For PARP cleavage analysis, dead cells were collected by centrifugation and combined with live cell lysates. Lysates were sonicated, centrifuged, and the supernatant quantified using the BCA Protein Assay Kit (Pierce, Thermo Scientific) according to the manufacturer's instructions. […]
For nuclear/cytoplasmic protein extraction, cells were collected by trypsinization. […] The fractions were quantified using the BCA Protein Assay Kit (Pierce, Thermo Scientific) according to the manufacturer's instructions, followed by western blot analysis.

The subject of the next experiment is p53. Conditions: CRM1 inhibition, other cancers, literature; cited from earlier work.
The mark [7] stands for this setting: single cisplatin treatment at 30 μM and 60 μM.
[8] abbreviates: 48-h treatment, no INI-43 pre-treatment.
[9] abbreviates: Kpnβ1 knock-down (si-Kpnβ1) cells.
[10] abbreviates: control siRNA (si-ctrl) transfected cells.

The term IC50 denotes the midpoint of a concentration-inhibition curve.

In the case of `N.N.[Cl][Pt][Cl]` [cisplatin, reference compound], the p53 protein levels result in experiment [1] (SiHa, single cisplatin treatment) is reported as “increased”. In experiment [1] (setting [7]), the Mcl-1 levels result is recorded as “decreased”. For the same molecule, in experiment [1] (setting [7]), the p21 levels result was “decreased”. Besides, in [2], the p53 reporter activity result is recorded as “significantly reduced”. In addition, the IC50 in the experiment on C33A was 12.8 µM; in the experiment with CaSki it was 18.1 µM; in the experiment on HeLa (setting [8]), 18 µM; with HeLa (setting [9]) it was 9.7 µM; in the experiment on HeLa (setting [10]), 24.4 µM; with SiHa (setting [8]), 30.8 µM. Besides, the IC50 in the experiment on SiHa (setting [9]) amounted to 19.3 µM; in the experiment on SiHa (setting [10]), 30.5 µM. In [3], the “levels of cyclin D1 and c-Myc” value is “elevated levels”. In addition, the p65 reporter activity result in [4] is on record as “induced”. The “nuclear fluorescence relative to cytoplasmic fluorescence (Fc (Nu/Cy))” value in [5] (single cisplatin treatment) is recorded as “significant increase”. For the same molecule, the “nuclear localization of NFκB-p50 and NFκB-p65” value in experiment [5] (single cisplatin treatment (30 μM), 24 h) is reported as “stimulated nuclear localization”. In addition, the “levels of NFκB-p50 and NFκB-p65 in the nucleus” value in [6] is on record as “increased levels”.
With `COc1cc(-c2ncn(/C=C\C(=O)OC(C)C)n2)cc(C(F)(F)F)c1` [KPT-185], the “effect on p53 stability” value with p53 is recorded as “stabilize p53”.
Take `CCC(=C/[C@H](C)C/C=C/C(C)=C/[C@@H](C)C(=O)[C@@H](C)[C@H](O)[C@@H](C)C/C(C)=C/C(=O)O)/C=C/[C@@H]1OC(=O)C=C[C@@H]1C` [leptomycin B]: in the experiment with p53, the “effect on p53 stability” value was “stabilize p53”.
